Measurements taken from ChEMBL document CHEMBL5506066, “Potency-Enhanced Peptidomimetic VHL Ligands with Improved Oral Bioavailability” (J Med Chem, 2024).

Tests used:
[1] = target: T1, von Hippel-Lindau disease tumor suppressor (Homo sapiens, UniProt P40337)
[2] = target: T1, von Hippel-Lindau disease tumor suppressor; assay: biochemical
Description: Binding affinity to VHL (unknown origin)-NanoLuc fusion protein expressed in HEK293 cells assessed as apparent dissociation constant incubated for 30 mins in presence of digitonin by NanoBRET assay

T1 sequence (P40337 whole entry): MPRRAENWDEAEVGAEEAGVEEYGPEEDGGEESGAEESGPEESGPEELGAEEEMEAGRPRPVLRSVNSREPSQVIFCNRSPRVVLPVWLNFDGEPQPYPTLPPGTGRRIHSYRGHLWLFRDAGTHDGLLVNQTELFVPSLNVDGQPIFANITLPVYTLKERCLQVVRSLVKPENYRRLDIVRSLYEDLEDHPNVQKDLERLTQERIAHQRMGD

SMILES	Kd [1] [µM]	Kd [2] [µM]
CSCC[C@H](NC(C)=O)C(=O)N1C[C@H](O)C[C@H]1C(=O)N[C@H](Cc1ccc(-c2ccccc2)cc1)C(N)=O	26.6	8.9
CC(=O)NC(C(=O)N1C[C@H](O)C[C@H]1C(=O)N[C@H](Cc1ccc(-c2ccccc2)cc1)C(N)=O)C12CC(C(F)(F)F)(C1)C2 (stereo partly specified)	6.6	2.4
CC(=O)N[C@H](C(=O)N1C[C@H](O)C[C@H]1C(=O)N[C@H](C(N)=O)c1ccc(-c2scnc2C)cc1)C(C)(C)C	14	2.15
COc1ccc(-c2ccc(C[C@@H](NC(=O)[C@@H]3C[C@@H](O)CN3C(=O)[C@@H](NC(C)=O)C(C)(C)C)C(N)=O)cc2)cc1F	> 57.5	21.2
CC(=O)N[C@@H](CC1CC1)C(=O)N1C[C@H](O)C[C@H]1C(=O)N[C@H](Cc1ccc(-c2ccccc2)cc1)C(N)=O	31.1	12.9
CC(=O)N[C@H](C(=O)N1C[C@H](O)C[C@H]1C(=O)N[C@H](Cc1ccc(-c2ccc(F)cn2)cc1)C(N)=O)C(C)(C)C	6.6	2.9
CC(=O)NC1(C(=O)N2C[C@H](O)C[C@H]2C(=O)N[C@H](Cc2ccc(-c3ccccc3)cc2)C(N)=O)CCC1	> 57.5	> 51.8
CC(=O)NC1(C(=O)N2C[C@H](O)C[C@H]2C(=O)N[C@H](Cc2ccc(-c3ccccc3)cc2)C(N)=O)CCCCC1	> 57.5	> 51.8
CC(=O)N[C@H](C(=O)N1C[C@H](O)C[C@H]1C(=O)N[C@H](Cc1ccc(-c2ccccc2)cc1)C(N)=O)C(C)(C)c1ccccc1	4.6	3.1
CC(=O)NC(C)(C)C(=O)N1C[C@H](O)C[C@H]1C(=O)N[C@H](Cc1ccc(-c2ccccc2)cc1)C(N)=O	> 57.5	> 51.8
CC(=O)N[C@]1(C(=O)N2C[C@H](O)C[C@H]2C(=O)N[C@H](Cc2ccc(-c3ccccc3)cc2)C(N)=O)CC1(C)C	> 57.5	> 51.8
CC(=O)NCC(=O)N1C[C@H](O)C[C@H]1C(=O)N[C@H](Cc1ccc(-c2ccccc2)cc1)C(N)=O	> 57.5	> 51.8
CC(=O)NC1(C(=O)N2C[C@H](O)C[C@H]2C(=O)N[C@H](Cc2ccc(-c3ccccc3)cc2)C(N)=O)CC1	> 57.5	> 51.8
CC(=O)N1CCCC[C@H]1C(=O)N1C[C@H](O)C[C@H]1C(=O)N[C@H](Cc1ccc(-c2ccccc2)cc1)C(N)=O	10.5	4.9
CC(=O)N[C@H](C(=O)N1C[C@H](O)C[C@H]1C(=O)N[C@H](Cc1ccc(-c2ccccc2)cc1)C(N)=O)C1CCNCC1	> 57.5	11.5
CC(=O)N[C@H](C(=O)N1C[C@H](O)C[C@H]1C(=O)N[C@H](Cc1ccc(C#N)cc1)C(N)=O)C(C)(C)C	> 57.5	9
CC(=O)N[C@H](C(=O)N1C[C@H](O)C[C@H]1C(=O)N[C@H](Cc1ccc(-c2ccccc2F)cc1)C(N)=O)C(C)(C)C	4.4	2.7
CC(=O)N1CCC[C@H]1C(=O)N1C[C@H](O)C[C@H]1C(=O)N[C@H](Cc1ccc(-c2ccccc2)cc1)C(N)=O	> 57.5	12.7
CC(=O)N[C@H](C(=O)N1C[C@H](O)C[C@H]1C(=O)N[C@H](Cc1ccc(C)cc1)C(N)=O)C(C)(C)C	> 57.5	> 51.8
CC(=O)N[C@H](C(=O)N1C[C@H](O)C[C@H]1C(=O)N[C@H](Cc1ccc(-c2ccccc2Cl)cc1)C(N)=O)C(C)(C)C	5.5	1.8
CC(=O)N[C@@H](Cc1cscn1)C(=O)N1C[C@H](O)C[C@H]1C(=O)N[C@H](Cc1ccc(-c2ccccc2)cc1)C(N)=O	> 57.5	14.2
CC(=O)N[C@H](C(=O)N1C[C@H](O)C[C@H]1C(=O)N[C@H](Cc1ccc(I)cc1)C(N)=O)C(C)(C)C	6.1	2.6

SMILES	Kd [1] [µM]	Kd [2] [µM]
COc1ccc(-c2ccc(C[C@@H](NC(=O)[C@@H]3C[C@@H](O)CN3C(=O)[C@@H](NC(C)=O)C(C)(C)C)C(N)=O)cc2)cc1	> 57.5	30.9
CC(=O)N[C@H](C(=O)N1C[C@H](O)C[C@H]1C(=O)N[C@H](Cc1ccc(-c2cccc(Cl)n2)cc1)C(N)=O)C(C)(C)C	> 57.5	4.2
CC(=O)N[C@H](C(=O)N1C[C@H](O)C[C@H]1C(=O)N[C@H](Cc1ccc(-c2ccccc2)cc1)C(N)=O)C1(C)CC1	15.4	3.9
CC(=O)N[C@H](C(=O)N1C[C@H](O)C[C@H]1C(=O)N[C@H](Cc1ccc(-c2ccccc2)cc1)C(N)=O)C12CC3CC(CC(C3)C1)C2	0.68	0.41
CC(=O)N[C@H](C(=O)N1C[C@H](O)C[C@H]1C(=O)N[C@H](Cc1ccc(-c2ccccc2)cc1)C(N)=O)C1CCOCC1	17.8	2.9
CC(=O)N[C@@H](Cc1ccccc1)C(=O)N1C[C@H](O)C[C@H]1C(=O)N[C@H](Cc1ccc(-c2ccccc2)cc1)C(N)=O	> 57.5	18.1
CC(=O)N[C@@]1(C(=O)N2C[C@H](O)C[C@H]2C(=O)N[C@H](Cc2ccc(-c3ccccc3)cc2)C(N)=O)CC1(C)C	> 57.5	> 51.8
CC(=O)N[C@@H](CCCN)C(=O)N1C[C@H](O)C[C@H]1C(=O)N[C@H](Cc1ccc(-c2ccccc2)cc1)C(N)=O	> 57.5	17.3
CC(=O)N[C@H](C(=O)N1C[C@H](O)C[C@H]1C(=O)N[C@H](Cc1ccc(C(C)(C)C)cc1)C(N)=O)C(C)(C)C	> 57.5	> 51.8
Cc1cc(CC(=O)N2C[C@H](O)C[C@H]2C(=O)N[C@H](Cc2ccc(-c3ccccc3)cc2)C(N)=O)on1	46.9	24.4
CC(=O)N[C@H](C(=O)N1C[C@H](O)C[C@H]1C(=O)N[C@@H](C(N)=O)c1ccc(-c2scnc2C)cc1)C(C)(C)C	1.99	0.21
CC(=O)N[C@H](C(=O)N1C[C@H](O)C[C@H]1C(=O)N[C@H](Cc1ccc(-c2ccccc2)cc1)C(N)=O)C1CCN(C(C)=O)CC1	> 57.5	2.7
COc1ccccc1-c1ccc(C[C@@H](NC(=O)[C@@H]2C[C@@H](O)CN2C(=O)[C@@H](NC(C)=O)C(C)(C)C)C(N)=O)cc1	12.2	4.3
NC(=O)[C@@H](Cc1ccc(-c2ccccc2)cc1)NC(=O)[C@@H]1C[C@@H](O)CN1C(=O)Cc1ccoc1	> 57.5	> 51.8
CC(=O)N[C@H](C(=O)N1C[C@H](O)C[C@H]1C(=O)N[C@H](Cc1ccc(-c2ccccc2)cc1)C(N)=O)C(c1ccccc1)c1ccccc1	> 57.5	47
CSC[C@H](NC(C)=O)C(=O)N1C[C@H](O)C[C@H]1C(=O)N[C@H](Cc1ccc(-c2ccccc2)cc1)C(N)=O	46.5	18.6
CC(=O)N[C@H](C(=O)N1C[C@H](O)C[C@H]1C(=O)N[C@H](Cc1ccc(-c2cccnc2)cc1)C(N)=O)C(C)(C)C	45.2	2.7
CC(=O)N[C@H](C(=O)N1C[C@H](O)C[C@H]1C(=O)N[C@H](Cc1ccc(-c2ccc(F)c(Cl)c2)cc1)C(N)=O)C(C)(C)C	11	3.5
CC(=O)N[C@H](C(=O)N1C[C@H](O)C[C@H]1C(=O)N[C@H](Cc1ccc(-c2ccc(F)cc2)cc1)C(N)=O)C(C)(C)C	11.8	2.1
CC(=O)N1CC[C@H]1C(=O)N1C[C@H](O)C[C@H]1C(=O)N[C@H](Cc1ccc(-c2ccccc2)cc1)C(N)=O	57.5	48
CC(=O)N[C@H](C(=O)N1C[C@H](O)C[C@H]1C(=O)N[C@H](Cc1ccccc1)C(N)=O)C(C)(C)C	> 57.5	> 51.8
